Here are results for 9 compounds from patent US9394303B2, “Small molecule inhibitors of MCL-1 and uses thereof” (priority 2014, dated 2016).

Experiment [1] deals with T1, Mcl-1 (Homo sapiens (Human), UniProt Q07820). To be noted: for did not bind to Mcl-1 up to: highest concentration tested.
In a further experiment the target is Bcl-xL (Homo sapiens (Human), UniProt Q07817, DEL45-85). As to the kind of experiment: Fluorescence polarization-based competitive binding assay (FAM-BID tracer). To be noted: for Ki: Table 2, tested up to 20 μM, read-out: Bcl-XL Ki ± SD. Background: Polarisation of emitted light reports the rotation of a fluorescent probe.
Chain of Bcl-xL (Q07817 with tags, fused parts or gaps DEL45-85): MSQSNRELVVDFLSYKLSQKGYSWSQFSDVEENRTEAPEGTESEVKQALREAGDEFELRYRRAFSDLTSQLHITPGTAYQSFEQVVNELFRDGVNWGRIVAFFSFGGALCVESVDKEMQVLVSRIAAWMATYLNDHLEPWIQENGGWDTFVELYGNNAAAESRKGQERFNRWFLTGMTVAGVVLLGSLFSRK
In another experiment the target is Bcl-2 (Homo sapiens, UniProt P10415). The description is as above.
Chain of Bcl-2 (P10415 whole entry, looked up): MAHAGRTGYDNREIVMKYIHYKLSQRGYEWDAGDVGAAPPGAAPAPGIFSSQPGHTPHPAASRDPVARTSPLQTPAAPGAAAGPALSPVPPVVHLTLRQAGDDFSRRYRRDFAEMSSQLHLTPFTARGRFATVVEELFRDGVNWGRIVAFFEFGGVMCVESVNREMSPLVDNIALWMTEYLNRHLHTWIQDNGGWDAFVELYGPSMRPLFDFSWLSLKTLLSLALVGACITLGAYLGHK
In experiment [2] the test system is Eμ-myc lymphoma cells overexpressing Bcl-2. In words: Eμ-myc lymphoma cell killing. The class given is cell-based, mice. The conditions noted are these: FIG. 9. The text has this:
(§1) The specificity and selectivity of this class Mcl-1 inhibitors was further confirmed by using cell lines developed by retroviral transduction of lymphoma cells isolated from Eμ-myc transgenic mice which survival depends on the expression of individual prosurvival protein (see, e.g., Whitecross K F, Alsop A E, Cluse L A, Wiegmans A, Banks K M, et al. 2009. […].

Experiment [3] concerns Eμ-myc lymphoma cells overexpressing Bcl-xL. As to the kind of experiment: Eμ-myc lymphoma cell killing. Format: cell-based, mice. To be noted: FIG. 9.
Source text: as §1

Experiment [4] concerns the target T1, Mcl-1. The conditions noted are these: cited from earlier work.
Experiment [5] relates to Eμ-myc lymphomas overexpressing Mcl-1. In words: Eμ-myc lymphoma cell killing. The class given is cell-based, mice. To be noted: FIG. 9.
Source text: as §1

[6] abbreviates: read-out: Bcl-2 Ki ± SD; Table 2; tested up to 20 μM.
Setting [7] is: Table 2; tested up to 20 μM; read-out: Bcl-2 Ki ± SD.

SMILES strings stand for the structures. Entries after “also recorded” stand apart in the source; their conditions may differ. Where two headings read alike, the source gives them in different places.

On to `Cc1cc(C(=O)O)c2c(C)nn(C)c2n1` [Compound 5, 1,3,6-Trimethyl-1H-pyrazolo[3,4-b]pyridine-4-carboxylic acid], for which, at Mcl-1 [1], the “did not bind to Mcl-1 up to” value is more than 200 µM.
As usually defined, the Ki is a measure of affinity in units of concentration, obtained from inhibition or displacement. Turning to `Cc1nn(Cc2ccc(Oc3ccccc3)cc2)c2nc(/C=C/c3ccccc3)cc(C(=O)O)c12` [Compound 16, (E)-3-methyl-1-(4-phenoxybenzyl)-6-styryl-1H-pyrazolo[3,4-b]pyridine-4-carboxylic acid], the figures for the Ki on Bcl-xL and at Bcl-2 (setting [6]) were 3.55 ± 0.3 µM and 3.16 ± 1.03 µM, respectively.
On to `CC1(C)CCC(c2ccc(Cl)cc2)=C(CN2CCN(c3ccc(C(=O)NS(=O)(=O)c4ccc(N[C@H](CCN5CCOCC5)CSc5ccccc5)c(S(=O)(=O)C(F)(F)F)c4)cc3)CC2)C1` [ABT-263, reference compound], for which the “effect on Eμ-myc lymphoma cells dependent on Bcl-2” value in experiment [2] is “kills”. Besides, the “effect on Eμ-myc lymphoma cells dependent on Bcl-xL” value in experiment [3] was “kills”.
As to `Cc1nn(Cc2ccc(Oc3ccccc3)cc2)c2nc(-c3ccco3)cc(C(=O)O)c12` [Compound 8, 6-(Furan-2-yl)-3-methyl-1-(4-phenoxybenzyl)-1H-pyrazolo[3,4-b]pyridine-4-carboxylic acid], the Ki on Bcl-2 (setting [6]) is more than 4 µM.
As for `Cc1nn(Cc2ccccc2)c2nc(-c3ccco3)cc(C(=O)O)c12` [Compound 6, 1-Benzyl-6-(furan-2-yl)-3-methyl-1H-pyrazolo[3,4-b]pyridine-4-carboxylic acid], on Mcl-1 [1] (vs compound 2), the “change in potency compared to 2” value is recorded as “slight increase in potency”.
Consider `CN(C)CC[C@H](CSc1ccccc1)Nc1ccc(S(=O)(=O)NC(=O)c2ccc(N3CCN(Cc4ccccc4-c4ccc(Cl)cc4)CC3)cc2)cc1[N+](=O)[O-]` [ABT-737], for which, on Mcl-1 [4], the “binding to Mcl-1” value is “fails to bind”.
As for `Cc1cc(Oc2ccc(Cn3nc(C)c4c(C(=O)O)cc(-c5ccco5)nc43)cc2)cc(C)c1Cl` [Compound 57], the “effect on Eμ-myc lymphoma cells dependent on Bcl-2” value in experiment [2] is “did not show effect; also recorded: not affected”. Moreover, the “effect on Eμ-myc lymphoma cells dependent on Bcl-xL” value in experiment [3] is on record as “did not show effect; also recorded: not affected”. The “effect on Eμ-myc lymphoma cells dependent on Mcl-1” value in experiment [5] was “led to sensitization; also recorded: selective killing”. Also, the Ki is more than 5 µM at Bcl-xL and 1.95 ± 0.2 µM at Bcl-2 (setting [7]). For the same compound, the “no binding to Bcl-xL up to” value on Bcl-xL (highest concentration tested) is more than 20 µM.
Take `Cc1nn(C)c2nc(-c3ccco3)cc(C(=O)O)c12` [Compound 3, 6-(Furan-2-yl)-1,3-dimethyl-1H-pyrazolo[3,4-b]pyridine-4-carboxylic acid]: the “did not bind to Mcl-1 up to” value on Mcl-1 [1] is more than 200 µM.
`Cc1nn(Cc2ccc(Oc3cccc4ccccc34)cc2)c2nc(-c3ccco3)cc(C(=O)O)c12` [Compound 58]: the Ki is more than 5 µM on Bcl-xL and more than 4 µM at Bcl-2 (setting [7]).
